# Data as given in US20220235034A1, “SELECTIVE HISTAMINE H3 RECEPTOR ANTAGONISTS FOR TREATING AUTISM SPECTRUM DISORDER” (RICHTER GEDEON NYRT., priority 2019, published 2022).
# Entries after “also recorded” stand apart in the source; their conditions may differ.
# Columns and labels:
# [1] = system: prenatal valproate exposure model; conditions: dose of risperidone applied in the present study (0.003 mg/kg); cited from earlier work
# [2] = system: prenatally valproate-treated rats; assay: social preference in the 3-chamber apparatus in prenatally valproate-treated rats; assay type: in vivo, rat; conditions: postnatal day 59
# Method: (§1) In this method, time-mated female Wistar rats are administered a single dose of VPA (600 mg/kg, i.p.) on gestational day 12.5. Offspring are housed according to standard laboratory conditions until time of behavioral testing. Animals are housed in groups of 4 in conventional cages and maintained at 22-24° C. on a standard 12 hours light/dark cycle, with food and water available ad libitum. After investigational drug treatment, offspring are examined behaviorally in tests relevant for the assessment of autistic behavior. These tests include social play, social preference and social recognition memory. These tests are suitable to assess behavioral elements that represent core ASD symptoms in experimental animals. Efficaciousness of an investigational compound (ie. improvement of behavioral deficits induced by prenatal VPA exposure) may indicate usefulness in the pharmacotherapy of core symptoms of ASD. Doses of the investigational drug were corrected for the dicitrate salt with a correction factor of 2.07 and are expressed as free base. Reference is herein made to a parallel patent application filed by the applicant with the title of “Selective histamine H3 receptor antagonist acid addition salts and process for the preparation thereof” wherein the salts, including dicitrate salt is disclosed in detail.
# The social preference and recognition memory assays in a 3-chamber apparatus are further indicators of intact social behavior in rats. The preference of a conspecific over an inanimate object as well as the ability to distinguish between familiar and novel conspecifics are necessary for normal social functioning and are defective in the prenatal VPA model in rats (Bambini-Junior et al., Brain Res. 2011, 1408:8-16). […] On postnatal day 59, prenatally VPA-treated rats are assessed for their social preference following 8 days of per os treatment with the test compound. On postnatal day 60, the same rats are assessed for their social recognition memory after 9 days of per os treatment with the test compound. […]
# [3] = system: prenatally valproate-treated rats; assay: social recognition memory in the 3-chamber apparatus in prenatally valproate-treated rats; assay type: in vivo, rat; conditions: postnatal day 60
# Method: In this method, time-mated female Wistar rats are administered a single dose of VPA (600 mg/kg, i.p.) on gestational day 12.5. Offspring are housed according to standard laboratory conditions until time of behavioral testing. Animals are housed in groups of 4 in conventional cages and maintained at 22-24° C. on a standard 12 hours light/dark cycle, with food and water available ad libitum. After investigational drug treatment, offspring are examined behaviorally in tests relevant for the assessment of autistic behavior. These tests include social play, social preference and social recognition memory. These tests are suitable to assess behavioral elements that represent core ASD symptoms in experimental animals. […] Doses of the investigational drug were corrected for the dicitrate salt with a correction factor of 2.07 and are expressed as free base. […]
# The social preference and recognition memory assays in a 3-chamber apparatus are further indicators of intact social behavior in rats. […] On postnatal day 59, prenatally VPA-treated rats are assessed for their social preference following 8 days of per os treatment with the test compound. On postnatal day 60, the same rats are assessed for their social recognition memory after 9 days of per os treatment with the test compound. […]
# [4] = system: prenatally valproate-treated rats; assay: social play assay in prenatally valproate-treated rats; assay type: in vivo, rat; conditions: postnatal day 30
# Method: as §1
# Social play is a type of social interaction that is highly typical of adolescent mammals including rodents as well as humans (Vanderschuren and Trezza, Curr. Topics Behav. Neurosci. 2014, 16:189-212). Social play behavior is indicative of healthy social functioning in adult life and is defective after prenatal VPA treatment in the offspring (Schneider and Przewlocki Neuropsychopharmacology 2005, 30:80-89). At postnatal day 30, following 8 days treatment with the test compound, prenatally VPA-treated rats are evaluated for juvenile play behavior. The test is carried out in a test arena unknown to the rats with pairs of animals from the same treatment group over a 15 min trial. Animals are scored for duration of social play behavior. […]
# [5] = system: prenatally valproate-exposed rat pups; assay: maternal deprivation-induced ultrasonic vocalization in prenatally valproate-exposed rat pups; assay type: in vivo; conditions: 0.01-1 mg/kg oral, co-administered with oral risperidone 0.003 mg/kg; prenatal valproate 300 mg/kg
# Method: Maternal deprivation-induced ultrasonic vocalization in rat pups is a readout of socio-communicational function that is impaired in offspring after prenatal exposure to VPA (Gandal et al., Biol. Psychiatry 2010, 68, 1100-1106). To induce ultrasonic calls, prenatally VPA treated rat pups are placed individually into a cage where calls are being recorded with bat microphones. Calls are digitized with an audio filter and ultrasonic vocalization is recorded and quantified with SonoTrack software (Metris bv. The Netherlands). Baseline vocalization is measured on postnatal days 11-12 days for 10 min. Animals are divided into homogenous groups based on baseline vocalizations. On postnatal day 13, animals are treated p.o. with the appropriate doses of drug or vehicle 60 min before measurement and then returned to their nests until recording. Ultrasonic call counts are recorded for 10 min. Statistical analysis is performed on ultrasonic call counts with the non-parametric Kruskal-Wallis test and the post hoc Dunnett test.
# The behavioral effect of the co-administration of 1-[4-(4-{3-[(2R)-2-methyl-pyrrolidin-1-yl]-propoxy)-phenoxy)-piperidin-1-yl]-ethan-1-one dicitrate and risperidone was studied in prenatally valproate-exposed (300 mg/kg) rat pups on ultrasound emissions induced by separation from their mothers. […]
SMILES,efficacy signal in the prenatal valproate exposure model [1],effect on social preference versus VPA+VEH ([2]; 0.1 mg/kg per os once daily for 8 days),"effect on social preference versus VPA+VEH ([2]; 1 mg/kg per os once daily for 8 days, dicitrate)","reversal of the social preference deficit induced by prenatal valproate treatment ([2]; per os once daily for 8 days, doses 0.01, 0.1 and 1 mg/kg)","effect on social recognition memory versus VPA+VEH familiar ([3]; 1 mg/kg per os once daily for 9 days, dicitrate)","reversal of the social recognition deficit induced by prenatal valproate treatment ([3]; per os once daily for 9 days, doses 0.01, 0.1 and 1 mg/kg)","significance of effect on social play versus VPA+VEH ([4]; 0.1 mg/kg per os once daily for 8 days, dicitrate)",significance of effect on social play versus VPA+VEH ([4]; 1 mg/kg per os once daily for 8 days),"reversal of the social play deficit induced by prenatal valproate treatment (duration of social play behavior) ([4]; per os once daily for 8 days, doses 0.01, 0.1 and 1 mg/kg (as free base), dicitrate)",reversal of the socio-communicational defect (ultrasound emissions induced by separation from mothers) [5]
Cc1nc2n(c(=O)c1CCN1CCC(c3noc4cc(F)ccc34)CC1)CCCC2 [risperidone],produce an efficacy signal,,,,,,,,,
CC(=O)N1CCC(Oc2ccc(OCCCN3CCC[C@H]3C)cc2)CC1 [1-[4-(4-{3-[(2R)-2-methylpyrrolidin-1-yl]-propoxy}-phenoxy)-piperidin-1-yl]-ethan-1-on dicitrate],,statistically significant,statistically significant; also recorded: fully reversed social preference deficits,reversed the social preference deficit,statistically significant; also recorded: fully reversed social recognition memory deficits,reversed the social recognition deficit,statistically significant; also recorded: reaching significance,statistically significant,reversed the social play deficit; also recorded: partially reversed social play deficits,dose-proportionally reversed the socio-communicational defect
